Values after ≈ are worked out from the molar mass of the structure shown.
Assays:
Candida albicans = assay: MIC, modified DGHM dilution method; assay type: cell-based; conditions: A.C. = active compound
gram positive bacteria = assay: MIC, DGHM dilution test method, by type of microorganism; assay type: cell-based; conditions: read-out: minimum growth inhibiting concentration (MIC value)
Method: (§1) The minimum growth inhibiting concentration (MIC value) of 3-hydroxy-2,3-dihydrobenzisothiazole-1,1-dioxide for the different types of microorganisms was determined in conformity with the dilution test method of the "Deutsche Gesellschaft fUr Hygiene und Mikrobiologie" (DGHM) and are: […]

yeasts = assay: as above; assay type: cell-based; conditions: read-out: minimum growth inhibiting concentration (MIC value)
Method: as §1

fungi = assay: as above; assay type: cell-based; conditions: read-out: minimum growth inhibiting concentration (MIC value)
Method: as §1

gram negative bacteria = assay: as above; assay type: cell-based; conditions: read-out: minimum growth inhibiting concentration (MIC value)
Method: as §1

certain bacteria = assay: Synergy with quaternary ammonium compounds; assay type: cell-based; conditions: in combination with some quaternary ammonium compounds such as dimethylbenzyl coco-ammonium chloride or didecyldimethyl ammonium chloride
Proteus mirabilis = assay: MIC, modified DGHM dilution method; assay type: cell-based; conditions: A.C. = active compound
Escherichia coli = assay: MIC, modified DGHM dilution method; assay type: cell-based; conditions: A.C. = active compound
Trichoderma viride = assay: MIC, modified DGHM dilution method; assay type: cell-based; conditions: A.C. = active compound
Pyricularia oryzae = assay: microbe, parasite or virus in culture; assay type: cell-based; conditions: read-out: MIC-values
Streptococcus faecalis = assay: MIC, modified DGHM dilution method; assay type: cell-based; conditions: Enterococcus faecalis, A.C. = active compound
Paecillomyces varioti = assay: MIC, modified DGHM dilution method; assay type: cell-based; conditions: A.C. = active compound
[1] = Acute oral toxicity in rats; assay type: in vivo; conditions: for LD50 at 24 h / LD50 at 48 h / LD50 at 336 h: rat, in vivo, po; for LD50 at 24 h: after 24 hours; for LD50 at 48 h: after 48 hours; for LD50 at 336 h: after 14 days
Pseudomonas aeruginosa = assay: MIC, modified DGHM dilution method; assay type: cell-based; conditions: A.C. = active compound
Chaetomium globosum = assay: MIC, modified DGHM dilution method; assay type: cell-based; conditions: A.C. = active compound
[2] = test system: sulfphate reducing bacteria; assay: Bacteriostatic activity towards sulphate reducing bacteria; assay type: cell-based; conditions: result in words
Pellicularia sasaki = assay: MIC, modified DGHM dilution method; assay type: cell-based; conditions: A.C. = active compound
Staphylococcus aureus = assay: MIC, modified DGHM dilution method; assay type: cell-based; conditions: A.C. = active compound
Aspergillus niger = assay: MIC, modified DGHM dilution method; assay type: cell-based; conditions: A.C. = active compound
Saccharomyces cerevisiae = assay: MIC, modified DGHM dilution method; assay type: cell-based; conditions: A.C. = active compound

| Compound | MIC (Candida albicans) [µg/mL] | MIC (Proteus mirabilis) [µg/mL] | MIC (Escherichia coli) [µg/mL] | MIC (Trichoderma viride) [µg/mL] | MIC (Pyricularia oryzae) [µg/mL] | MIC (Streptococcus faecalis) [µg/mL] | MIC (Paecillomyces varioti) [µg/mL] | MIC (Pseudomonas aeruginosa) [µg/mL] | MIC (Chaetomium globosum) [µg/mL] | MIC (Pellicularia sasaki) [µg/mL] | MIC (Staphylococcus aureus) [µg/mL] | MIC (Aspergillus niger) [µg/mL] | MIC (Saccharomyces cerevisiae) [µg/mL] | also measured |
| --- | --- | --- | --- | --- | --- | --- | --- | --- | --- | --- | --- | --- | --- | --- |
| O=S1(=O)NC(O)c2ccccc21 (stereo not drawn) [3-hydroxy-2,3-dihydrobenzisothiazole-1,1-dioxide] | 600 to 1200 (≈ 3.24 to 6.48 mM) | 600 to 1200 (≈ 3.24 to 6.48 mM) | 600 to 1200 (≈ 3.24 to 6.48 mM) | 75 to 150 (≈ 0.405 to 0.81 mM) | 150 to 200 (≈ 0.81 to 1.08 mM) | 600 to 1200 (≈ 3.24 to 6.48 mM) | 18.8 to 37.5 (≈ 0.102 to 0.202 mM) | 1200 (≈ 6.48 mM) | 37.5 to 75 (≈ 0.202 to 0.405 mM) | 150 (≈ 0.81 mM) | 600 to 1200 (≈ 3.24 to 6.48 mM) | 75 to 150 (≈ 0.405 to 0.81 mM) | 300 to 600 (≈ 1.62 to 3.24 mM) | MIC (gram positive bacteria): 600 to 1200 µg/mL (≈ 3.24 to 6.48 mM); MIC (yeasts): 300 to 1200 µg/mL (≈ 1.62 to 6.48 mM); MIC (fungi): 37.5 to 600 µg/mL (≈ 0.202 to 3.24 mM); MIC (gram negative bacteria): 600 to 2400 µg/mL (≈ 3.24 to 13 mM); effect in combination (certain bacteria): synergistic effect; LD50 at 24 h ([1]; ♀ rats): 860 mg/kg; LD50 at 48 h ([1]; ♀ rats): 860 mg/kg; LD50 at 336 h ([1]; ♀ rats): 860 mg/kg; LD50 at 24 h ([1]; ♂ + ♀ rats): 1070 mg/kg; LD50 at 48 h ([1]; ♂ + ♀ rats): 1020 mg/kg; LD50 at 336 h ([1]; ♂ + ♀ rats): 1020 mg/kg; LD50 at 24 h ([1]; ♂ rats): 1380 mg/kg; LD50 at 48 h ([1]; ♂ rats): 1220 mg/kg; LD50 at 336 h ([1]; ♂ rats): 1220 mg/kg; oral toxicity ([1]; result in words): low oral toxicity; bacteriostatic activity [2]: remarkable bacteriostatic activity |
| COC1=NS(=O)(=O)c2ccccc21 [3-methoxy-1,2-benzisothiazole-1,1-dioxide, reference compound] | > 1200 | 600 to 1200 (≈ 3.04 to 6.08 mM) | 1200 (≈ 6.08 mM) | > 1200 | > 1200 | > 1200 | 600 to 1200 (≈ 3.04 to 6.08 mM) | > 1200 | > 1200 | 600 to 1200 (≈ 3.04 to 6.08 mM) | > 1200 | > 1200 | > 1200 |  |
